Data reported in PubChem BioAssay (NCI).
Where “and” joins values, the source holds several entries; their conditions need not be identical. Equal entries are not always repeated.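 Where inhibition never reached the appropriate level, the endpoint shown equals the highest concentration tested. Otherwise, values were interpolated linearly from a five-concentration, 48-hour dose response in 96-well plates. GI50 marks 50% less growth. TGI is the concentration that stops growth completely.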

Experiments:
Experiment in all cases: NCI anticancer screen, dose series, 48 h
A498 renal = test system: A498 renal
A549 NSCLC = test system: A549 NSCLC
HOP-62 NSCLC = test system: HOP-62 NSCLC
NCI-H226 lung = test system: NCI-H226 lung
NCI-H23 lung = test system: NCI-H23 lung
OVCAR-3 ovarian = test system: OVCAR-3 ovarian
RPMI-8226 leukemia = test system: RPMI-8226 leukemia
SF-295 CNS = test system: SF-295 CNS
SK-OV-3 ovarian = test system: SK-OV-3 ovarian
SNB-19 CNS = test system: SNB-19 CNS

Structure (SMILES) | GI50 (A498 renal) | TGI (A498 renal) | GI50 (A549 NSCLC) | TGI (A549 NSCLC) [µM] | GI50 (HOP-62 NSCLC) | TGI (HOP-62 NSCLC) | GI50 (NCI-H226 lung) | TGI (NCI-H226 lung) | GI50 (NCI-H23 lung) | TGI (NCI-H23 lung) | GI50 (OVCAR-3 ovarian) | TGI (OVCAR-3 ovarian) | GI50 (RPMI-8226 leukemia) | TGI (RPMI-8226 leukemia) [µM] | GI50 (SF-295 CNS) | TGI (SF-295 CNS) | GI50 (SK-OV-3 ovarian) | TGI (SK-OV-3 ovarian) | GI50 (SNB-19 CNS) | TGI (SNB-19 CNS)
C[N+]1=C(/C=C\C=C\c2ccccc2)C(C)(C)c2ccccc21 | 3.08 µM | 11.3 µM | 4.43 µM | 19.6 | 4.1 µM | 15.1 µM | 4.33 µM | 25.5 µM | 2.83 µM | 11.5 µM | 1.08 µM | 2.81 µM | 1.22 µM | 6.53 | 10.8 µM | 24.6 µM | 11.3 µM | 23.9 µM | 2.79 µM | 10.8 µM
CCOC(=O)c1[nH]c(COC(C)=O)c2c1CCCCCCCCCC2 |  | > 100 µM |  | > 100 |  | > 100 µM |  | > 100 µM |  | > 100 µM |  | > 100 µM |  | > 100 |  | > 100 µM |  | > 100 µM |  | > 100 µM
O=Cc1c(O)c(C(=O)Nc2ccc3[nH]c(=O)[nH]c3c2)cc2ccccc12 |  | > 100 µM |  | > 100 |  | > 100 µM |  | > 100 µM |  | > 100 µM |  | > 100 µM |  | > 100 |  | > 100 µM |  | > 100 µM |  | > 100 µM
CC1(C)C2C=CC1C(=O)CC2 (stereo unspecified) |  | > 100 µM |  | > 100 |  | > 100 µM |  | > 100 µM |  | > 100 µM |  | > 100 µM |  | > 100 |  | > 100 µM |  |  |  | > 100 µM
Cc1cc(N2CCOCC2)cc2[nH]c(-c3c(NC[C@@H](O)c4cccc(Cl)c4)cc[nH]c3=O)nc12 | 0.35 µM | 1.15 µM | 0.903 µM | 4.31 | 2.16 µM | 12.3 µM | 0.361 µM | 5.89 µM | 1.29 µM | 11.3 µM | 5.58 µM | 27.7 µM | 3.22 µM | > 100 | 2.72 µM | 18.9 µM | 4.56 µM | 25 µM | 3.29 µM | 22.8 µM
O=C(O)C1CC(O)CN1 (stereo unspecified) |  | > 100 µM |  | > 100 |  | > 100 µM |  | > 100 µM |  | > 100 µM |  | > 100 µM |  | > 100 |  | > 100 µM |  | > 100 µM |  | > 100 µM
Cc1cc(C)cc(NC(N)=S)c1 |  | > 100 µM |  | > 100 |  | > 100 µM |  | > 100 µM |  | > 100 µM |  | > 100 µM |  | > 100 |  | > 100 µM |  |  |  | > 100 µM
Cc1cc(Cl)ccc1NC(=O)CC1SC(=Nc2ccccc2Cl)NC1=O (stereo unspecified) |  | > 100 µM |  | > 100 |  | > 100 µM |  | > 100 µM |  | > 100 µM |  | > 100 µM |  | > 100 |  | > 100 µM |  | > 100 µM |  | > 100 µM
Cc1cccc(NC(=O)c2cccc([N+](=O)[O-])c2O)c1C |  | > 100 µM |  | > 100 |  | 52.4 µM |  | > 87.7 µM |  | 62.9 µM |  | > 100 µM |  | > 87.3 |  | 80.1 µM |  | > 81.9 µM |  | > 100 µM
Cc1ccc(O)c(NC(=O)c2ccc(CNc3ccnc(C(F)(F)F)c3)cc2)c1 | 14.3 µM | 37.6 µM | 12.9 µM | > 100 | 4.79 µM | 30.5 µM | 4.52 µM | 38.8 µM | 10.6 µM | 53.3 µM | 11.3 µM | 28.2 µM | 2.64 µM | 11.3 | 1.35 µM | 12.2 µM | 3.87 µM | 36.7 µM | 6.15 µM | 48 µM
CN(Cc1cc(C(C)(C)C)cc(Br)c1O)Cc1cc(C(C)(C)C)cc(Br)c1O |  | 8.93 µM |  | 13.7 |  | 15.5 µM |  | 13.3 µM |  | 9.88 µM |  | 6.73 µM |  | 6.79 |  | 14.3 µM |  | 22.2 µM |  | 19.3 µM
COc1cc(Nc2ncc(F)c(Nc3ccc4c(n3)N(COP(=O)(O)O)C(=O)C(C)(C)O4)n2)cc(OC)c1OC | 0.356 µM and 0.221 µM | 1.37 µM and 0.872 µM | 2.27 µM and 2.11 µM | > 26.8 | 2.25 µM and 0.753 µM | 10.2 µM and 7.37 µM | 0.876 µM and 0.38 µM | 4.78 µM and 2.32 µM | 2.51 µM and 2.57 µM | 22.7 µM and > 10 µM | 2.66 µM and 2.71 µM | 33.6 µM and > 10 µM | 3.55 µM and 4.34 µM | > 31.3 | 1.39 µM and 1.17 µM | 7.55 µM and 8.7 µM | 0.972 µM and 0.707 µM | 3.46 µM and 2.98 µM | 2.68 µM and 2.84 µM | 21.3 µM and > 10 µM
O=C(/C=C/c1ccc(C(F)(F)F)cc1)c1ccc(Nc2nc(NCCO)nc(Nc3ccc(Cl)cc3)n2)cc1 | 1.67 µM | 12.6 µM | 3.48 µM | 13.5 | 8.55 µM | 22 µM | 4.29 µM | 18.7 µM | 10.7 µM | 26.2 µM | 2.75 µM | 8.12 µM | 1.56 µM | 5.43 | 3.98 µM | 14.7 µM | 13.4 µM | 34.3 µM |  | 
Cc1ncc(C(=O)Nc2ccc(CN3CCN(C)CC3)c(C(F)(F)F)c2)cc1C#Cc1cnc(N)cc1C#N | 0.24 µM | 0.872 µM | 1.26 µM | 3.93 | 0.573 µM | 2.91 µM | 0.263 µM | 2.66 µM | 0.707 µM | 3.21 µM | 0.995 µM | 3.25 µM | 0.338 µM | 3.5 | 1.88 µM | 3.98 µM | 0.401 µM | 1.8 µM | 2.37 µM | 4.67 µM
CCN(CC)c1ccc(C(=O)c2ccc(N(CC)CC)cc2)cc1 | 0.335 µM | 4.14 µM | 0.607 µM | > 58.1 | 0.805 µM | 98.2 µM | 2.54 µM | 61.6 µM | 0.74 µM | > 100 µM | 0.264 µM | 0.706 µM | 0.519 µM | 6.25 | 0.289 µM | 4.17 µM | 0.676 µM | 56.8 µM | 2.47 µM | > 100 µM
